In US20180028516A1, “METHODS AND DEVICES FOR THE TREATMENT OF OCULAR DISEASES IN HUMAN SUBJECTS” (CLEARSIDE BIOMEDICAL, INC., priority 2012, published 2018):
Entries after “also recorded” stand apart in the source; their conditions may differ.

Columns and labels:
[1] = Intraocular pressure and tolerability in porcine uveitis study (Example 13); type: in vivo, domestic weanling pigs
Procedure: Intraocular pressure (IOP) was measured at −6, −4, −1, 0, 1, 2, and 3 days using a TonoVet Tonometer (Care, Finland). In addition, IOP was measured 1, 3, and 6 hours after SCS or IVT injections on Day 0. The measurements were collected without use of topical anesthetic, per manufacturer recommendation. Conditioning of the pigs during acclimation permitted routine ocular examinations and IOP measurements to he done with minimal manual restraint. The tip of the tonometer probe was directed to contact the central cornea and 6 measurements were made consecutively. After the six measurements, the mean IOP was shown on the display providing the IOP that was recorded.

[2] = tested on: LPS-induced acute posterior uveitis; experiment: Wide-field ocular fundus digital photography in porcine uveitis study (Example 13); type: in vivo, domestic weanling pigs; conditions: 3 days after treatment
Text: On study days −1, 0 and 3, with the animals anesthetized arid pupils dilated with tropicamide 1%, the ocular fundus was photographed using standardized illumination and focus by a wide-field digital imaging system (Retcam II, Clarity Medical Systems, Pleasanton, Calif.).

[3] = Plasma and ocular matrix toxicokinetics after SCS TA, LC-MS/MS (Example 9); type: in vivo, New Zealand White rabbit
Procedure: On Day 0, New Zealand White (NZW) rabbits were administered a single bilateral supraehoroidal injection of vehicle, 3.2 mg (80 μL) or 5.2 mg (130 μL) of TA (Triesence®, Alcoa labs) using a 33 g 750 μm microneedle. Clinical observations, slit lamp biomicroscopy with McDonald-Shadduck scoring, intraocular pressure assessment (IOP), electroretinography (ERG), and systemic exposure were assessed up to 26 weeks post-dose. Animals were sacrificed on Day 1, Week 13, and Week 26 for macroscopic observations, ocular toxicokinetics, and ocular histopathology.
Plasma and oct lar matrixes (aqueous humor (AH), lens, iris/ciliary body (ICB), vitreous humor (VH), sclera/choroid (SC), and retina) were sampled on Days 1, 14, 28, and 60. Plasma (LLOQ 0.5 ng/mL) and ocular matrixes (LLOQ 2-15 ng/mL) were analyzed using LC-MS/MS, and resulting data were assessed for noncompartmental PK parameters. Systemic exposure to TA was minimal (FIG. 20C).

[4] = Optical coherence tomography, retinal thickness (Example 13); type: in vivo, domestic weanling pigs; conditions: all groups, prior to or following the injections
Text: Following wide-field ocular tlindus photography on Days −1, 0, and 3, the central retina was imaged with spectral-domain optical coherence tomography (SD-OCT) (Bioptigen SDOCT EnVisu Ophthalmic Imaging System, Durham, N.C.) using 6 imaging protocols (including rectangular volume scans of 6, 8, and 12 mm, and doppler rectangular volume).

[5] = Ophthalmic examinations and clinical observations after 4 mg SCS TA (Example 16); type: in vivo, New Zealand White rabbit; conditions: single bilateral suprachoroidal injection of 4 mg TA, albino rabbit
Procedure: In this study, the ocular tolerability and toxicokinetics of suprachoroidal administration of Ting triamcinolone acetonide (TA) using microneedle was determined, in the New Zealand White rabbit as an animal model.
On Day 0, New Zealand White (NZW) rabbits (4/sex/group/terminal time point, 48 total) were administered a single bilateral suprachoroidal injection of 100 μL of 4 ma TA (40 mg/mL) or vehicle, using a 33 g 750 μm microneedle. Clinical Observations, body weights, food consumption, slit lamp biomicroscopy with McDonald-Shadduck scoring, indirect ophthalmoscopy, intraocular pressure assessment (IOP), central corneal thickness (CCT), electroretinography (ERG), serum chemistry and hematology, and systemic exposure were assessed up to 13 weeks post-dose. Animals were sacrificed on Day 1 or Week 13 and were evaluated for macroscopic observations at necropsy and ocular histopathology. Four animals/sex were given an additional suprachoroidal administration on Day 90, and will be followed for an additional 13 weeks.

For `CC1(C)O[C@@H]2C[C@H]3[C@@H]4CCC5=CC(=O)C=C[C@]5(C)[C@@]4(F)[C@@H](O)C[C@]3(C)[C@]2(C(=O)CO)O1` [TA, triamcinolone acetonide], the “adverse effects, increased IOP, procedural or acute drug toxicity” value ([1]; TA into the SCS, porcine eyes) was “no adverse effects, increased IOP, or evidence of procedural or acute drug toxicity”, the “tolerability of TA delivered to the SCS using microneedles” value ([1]; up to three days after injection in porcine eyes) was “tolerated with an acceptable safety profile” and the “ocular fundus images (vitreal cloudiness)” value (“ocular fundus images” for short) ([2]; 0.2 mg TA IVT) was “only slightly improved over vehicle treated eyes”. For the same molecule, the “ocular fundus images” value ([2]; 0.2 mg TA SCS) was “less vitreal cloudiness and similar to the pre-treatment fundus appearance; also recorded: near pre-treatment appearance”, the “ocular fundus images” value ([2]; 2.0 mg TA IVT) was “less vitreal cloudiness and similar to the pre-treatment fundus appearance; also recorded: near pre-treatment appearance” and the “ocular fundus images” value ([2]; 2.0 mg TA SCS) was “less vitreal cloudiness and similar to the pre-treatment fundus appearance; also recorded: near pre-treatment appearance”. For the same molecule, the “systemic exposure to TA” value ([3]; 3.2 or 5.2 mg TA SCS, plasma) was “minimal”, the “difference between TA levels in sclera/choroid and in the vitreous” value ([3]; SCS TA) was 6 orders of magnitude and the “amount of TA retained in the retina, high dose vs low dose” value ([3]; by day 15, SCS) was “did not significantly differ”. The “amount of TA retained in the sclera/choroid, high dose vs low dose” value ([3]; by day 30, SCS) was “did not significantly differ”, the “order of TA in ocular matrixes (decreasing)” value ([3]; following SCS TA) was “SC>retina>ICB>VH>lens>AU” and the “sclera/choroid tissue concentration of TA” value ([3]; for longer than 28 days after a single SCS dose) was “greater than 100 μg/g tissue”. The “TA peak concentration in plasma” value ([3]; peaked on Day 1, both the high and low TA dose groups (5.2 and 3.2 mg SCS)) was “around 12 nglint”, the “retinal thickness (SD-OCT), difference between groups” value [4] was “no significant difference” and the tolerability [5] was “well tolerated”.
